Reference: patent publication US11857644B2, “Multi-signal fluorescent probe for early diagnosis of tumors, and preparation and use thereof” (Hunan Cancer Hospital, priority 2022, dated 2024)

Columns and labels:
[1] = Fluorescence detection of ONOO^− by the probe (limit of detection); details: organic phase:aqueous phase (PBS) 5:5, room temperature, 15 min
Procedure: (§1) The multi-signal fluorescent probe was dissolved with dimethyl sulfoxide (DMSO) to obtain a 1 mM probe solution. A 1 mM ONOO^− aqueous solution and a 1 mM Na2S2 aqueous solution were prepared.
(§2) 20 μL of the 1 mM probe solution, 980 μL of analytically pure CH3CN, the required amount of the 1 mM ONOO^− or Na2S2 aqueous solution and the required amount of phosphate buffered saline (PBS) were added into a 2 mL sample tube. A volume ratio of an organic phase to an aqueous phase was kept at 5:5 for all tests (a total volume of each test sample was 2 mL).
For example, when it was required to explore the fluorescence intensity of the multi-signal fluorescent probe after reacted with […] ONOO^−, the experiment was formulated as follows.
(§3) L of the 1 mM probe solution, 980 μL of analytically pure CH3CN, 20 μL of the 1 mM ONOO^− aqueous solution and 980 μL of PBS were added into a 2 mL sample tube. The reaction mixture was mixed evenly under shaking at room temperature for 15 min. Then, the fluorescence emission intensity of the reaction mixture could be measured under the 350 nm excitation wavelength. Other steps were performed as above. The limit of detection (LOD) for ONOO^− was 42.12 nM, and the LOD for Na2S2 was 38.45 nM. Fluorescence spectra of the multi-signal fluorescent probe in the detection of peroxynitrite and sodium disulfide were shown in FIG. 2. […]

[2] = Fluorescence detection of Na2S2 by the probe (limit of detection); details: organic phase:aqueous phase (PBS) 5:5, room temperature
Procedure: as §1, §2
as §3, with “The reaction mixture was mixed evenly under shaking at room temperature for 15 min.” left out, “Other steps were performed as above. The limit of detection (LOD) for ONOO^− was 42.12 nM, and the LOD for Na2S2 was 38.45 nM.” left out
The multi-signal fluorescent probe for reactive oxygen was dissolved in a solution, in which a volume ratio of DMSO to the aqueous phase was 5:5. […] Accordingly, a specific analyte can be detected by the specific excitation and fluorescence emission signal. The ONOO^− and Na2S2 can be distinguished by using different excitation wavelengths and fluorescence emission signals. […]

[3] = Fluorescence response selectivity against other species; details: OH, t-BuO, 1O2, NO, GSH, Cys, Hcy, SO2, NAC, H2S, halides, amino acids, NaHS, NaHSO3, EtSH, PhSH, n-Butylamine, aniline
Procedure: Regarding a method for detecting ONOO^− and Na2S2 in cells, unless otherwise specified, a probe molecule is dissolved at room temperature for analytical detection, where a volume ratio of an organic phase to an aqueous phase is 5:5. The organic phase is acetonitrile (CH3CN), and the aqueous phase is formed by PBS (pH=7.4) and an aqueous solution of the analyte.
The multi-signal fluorescent probe for reactive oxygen was dissolved in a solution, in which a volume ratio of […] to the aqueous phase was 5:5. The multi-signal fluorescent probe emitted 492 nm green light under 380 nm excitation wavelength after reacted with ONOO^−, and emitted 548 nm yellow light under 410 nm excitation wavelength after reacted with Na2S2. Accordingly, a specific analyte can be detected by the specific excitation and fluorescence emission signal. The ONOO^− and Na2S2 can be distinguished by using different excitation wavelengths and fluorescence emission signals. […] The LOD for ONOO^− is 42.12 nM, and the LOD for Na2S2 is 38.45 nM. In summary, the multi-signal fluorescent probe can realize the high-sensitivity discrimination and detection of ONOO^− and Na2S2.

## CCN1c2ccccc2Sc2cc3c(Cl)cc(=O)oc3cc21 [multi-signal fluorescent probe, 4-chloro-11-ethylpyrano[2,3-b]phenothiazin-2(11H)-one]
[1]
  limit of detection (LOD) for ONOO^−: 42.12 nM
[2]
  LOD for Na2S2: 38.45 nM
[3]
  fluorescence response to interfering species: no significant response
